Measurements published in US20150119344A1, “COMPOSITIONS AND METHODS FOR THE TREATMENT OF CARDIOVASCULAR AND NEUROLOGICAL DISEASES” (priority 2012, published 2015).

Assay: Water solubility: distilled water added to a weighed amount until a clear solution was obtained
Assay type: physicochemical
Conditions: for solubility: thermodynamic from solid, distilled water, weight in mg divided by volume of the clear solution in mL
Description: Measurement of the water solubility of the test compounds is accomplished by using methods well known to those skilled in the art. Specifically, to a weighed amount of the test compound of the example compound Formula I (Ib) distilled water was added in small proportions until a clear solution was obtained. The total volume of the solution is measured. The water solubility is calculated by dividing the weight of the salt, in milligrams (mg), by the volume of the solution, in mL. […] The compound of Formula I (Ib) is therefore, at least 368 times more soluble in water than EPA itself. This is a clear indication of an unexpectedly high degree of bioavailability of the compositions of the invention. Highly water soluble medicinal preparations, when administered orally, result in efficient absorption from the gastrointestinal tract in to systemic circulation. Furthermore, water soluble preparations are especially suitable for parenteral administration.

| Compound | times more soluble in water than EPA (ratio of water solubility versus EPA) | solubility |
| --- | --- | --- |
| CC/C=C\C/C=C\C/C=C\C/C=C\C/C=C\CCCC(=O)OCC1OC(O)(CO)C(O)C1O (stereo not drawn) [Formula I (Ib)] | at least 368 times | 68.6 mg/mL |
| CC/C=C\C/C=C\C/C=C\C/C=C\C/C=C\CCCC(=O)O [EPA, Eicosapentaenoic Acid, reference compound] |  | < 0.2 mg/mL |
